Experimental data: ChEMBL document CHEMBL1201862, “PubChem BioAssay data set” (2004)
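Five compound concentrations were applied to cells in 96-well plates for 48 hours; endpoints were derived by simple linear interpolation of the resulting dose-response curve. GI50: concentration for 50% inhibition of growth.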 Active and inactive are the calls of the source. No stated cut-off is given here; in the data, active = GI50 up to about 1.1 µM and inactive = higher.

How the values were obtained:
Assay in all cases: growth of human tumour cells (NCI), 48 h
[1] = tested on: 786-0
[2] = tested on: CCRF-CEM
[3] = tested on: COLO 205
[4] = tested on: HCC 2998
[5] = tested on: HCT-15
[6] = tested on: IGROV-1
[7] = tested on: K562
[8] = tested on: MOLT-4
[9] = tested on: Malme-3M
[10] = tested on: OVCAR-4
[11] = tested on: OVCAR-8
[12] = tested on: RPMI-8226
[13] = tested on: SF-539
[14] = tested on: SK-MEL-5
[15] = tested on: SK-OV-3
[16] = tested on: U-251

Row | Compound | GI50 [1] | GI50 [2] | GI50 [3] | GI50 [4] | GI50 [5] | GI50 [6] | GI50 [7] | GI50 [8] | GI50 [9] | GI50 [10] | GI50 [11] | GI50 [12] | GI50 [13] | GI50 [14] | GI50 [15] | GI50 [16]
1 | CCOC(=O)N[C@H]1CCc2cc(O)c(OC)c(OC)c2-c2ccc(SC)c(=O)cc21 | 0.0304 µM (active) | < 0.0139 µM (active) | 0.141 µM (active) | 0.113 µM (active) | 0.0323 µM | 0.0479 µM (active) | 0.0136 µM (active) | 0.03 µM (active) | 0.0111 µM (active) | 8 µM (inactive) | 0.0301 µM (active) | < 0.0135 µM (active) | 0.0137 µM (active) | 0.0127 µM (active) | 0.24 µM (active) | < 0.0162 µM (active)
2 | CN1CCN(CCSC2Cc3cc(Cl)ccc3Sc3ccccc32)CC1 (configuration not stated) | 4.55 µM (inactive) |  | 1.74 µM (inactive) | 4.18 µM (inactive) | 4.59 µM | 10.3 µM (inactive) | 1.71 µM (inactive) | 2.44 µM (inactive) | 2.45 µM (inactive) | 6.81 µM (inactive) | 7.91 µM (inactive) | 2.26 µM (inactive) | 3.15 µM (inactive) | 3.26 µM (inactive) | 16.7 µM (inactive) | 5.4 µM (inactive)
3 | CCOc1ccc(NC2=NC(=O)C(CC(=O)Nc3ccc(Cl)cc3Cl)S2)cc1 (configuration not stated) | > 100 µM (inactive) | 21.6 µM (inactive) | > 100 µM (inactive) | > 100 µM (inactive) | > 100 µM | > 100 µM (inactive) | > 100 µM (inactive) | 43.8 µM (inactive) | > 100 µM (inactive) | > 100 µM (inactive) | > 100 µM (inactive) | > 100 µM (inactive) | > 100 µM (inactive) | > 100 µM (inactive) | > 100 µM (inactive) | > 100 µM (inactive)
4 | CCCCOC(=O)NC(=O)c1cn(CCSCCOC(=O)NCCCCCCNC(=O)OCCSCCn2cc(C(=O)NC(=O)OCCCC)c(=O)[nH]c2=O)c(=O)[nH]c1=O | 32.3 µM (inactive) |  | > 100 µM (inactive) | > 100 µM (inactive) | > 100 µM | 37.7 µM (inactive) | > 100 µM (inactive) |  | 29.7 µM (inactive) | > 100 µM (inactive) |  | > 100 µM (inactive) | > 100 µM (inactive) | > 100 µM (inactive) | 30.1 µM (inactive) | 23.4 µM (inactive)
5 | FC(F)(F)c1ccccc1C1SCc2nc3ccccc3n21 (configuration not stated) | > 100 µM (inactive) | 27.4 µM (inactive) | 59.8 µM (inactive) | > 100 µM (inactive) |  | 60.1 µM (inactive) | 16.2 µM (inactive) | 23.9 µM (inactive) | 25.4 µM (inactive) |  | 61.4 µM (inactive) | 23 µM (inactive) | 85.7 µM (inactive) | > 10 µM (inactive) | 60.7 µM (inactive) | 88.5 µM (inactive)
6 | COc1cc2ccc(CC(=O)O)cc2cc1OC | > 100 µM (inactive) | > 100 µM (inactive) | > 100 µM (inactive) | > 100 µM (inactive) | > 100 µM | > 100 µM (inactive) | > 100 µM (inactive) | > 100 µM (inactive) | > 100 µM (inactive) | > 100 µM (inactive) | > 100 µM (inactive) | > 100 µM (inactive) |  | > 100 µM (inactive) | > 100 µM (inactive) | > 100 µM (inactive)
7 | COC(=O)[C@@]12CC(C(C)C)[C@H]3CC(C(=O)C=C1OC)[C@H]32 (some centres not stated) | > 100 µM (inactive) | 47.5 µM (inactive) | > 100 µM (inactive) | > 100 µM (inactive) | > 100 µM | > 100 µM (inactive) | 85.5 µM (inactive) | > 100 µM (inactive) | > 100 µM (inactive) | > 100 µM (inactive) | > 100 µM (inactive) | > 100 µM (inactive) | > 100 µM (inactive) | > 100 µM (inactive) | > 100 µM (inactive) | > 100 µM (inactive)
8 | Cc1ccc(C(=O)c2nnc(C(=O)c3ccc(C)cc3)nn2)cc1 | 28.2 µM (inactive) | 18.8 µM (inactive) | 70.1 µM (inactive) | > 100 µM (inactive) | 76 µM | 95.9 µM (inactive) | 23.3 µM (inactive) | 34.1 µM (inactive) | 65.5 µM (inactive) | 41.1 µM (inactive) | 34.9 µM (inactive) | 30.5 µM (inactive) | 38.9 µM (inactive) | 50.9 µM (inactive) | 19.3 µM (inactive) | 40.7 µM (inactive)
9 | Oc1ccccc1/C=N/c1ccccc1/N=C/c1ccccc1O | > 100 µM (inactive) | 8.3 µM (inactive) | > 100 µM (inactive) | > 100 µM (inactive) | 79.4 µM | > 100 µM (inactive) | 21.5 µM (inactive) | 16.1 µM (inactive) | > 100 µM (inactive) |  | > 100 µM (inactive) | 62.7 µM (inactive) | 71.3 µM (inactive) | 86.1 µM (inactive) | > 100 µM (inactive) | 30.9 µM (inactive)
10 | Cc1ccc(-c2c(N)nc(NC#N)nc2CCC(=O)Nc2ccccc2[N+](=O)[O-])cc1 | > 100 µM (inactive) | > 100 µM (inactive) | > 100 µM (inactive) | > 100 µM (inactive) | > 100 µM | > 100 µM (inactive) | > 100 µM (inactive) | > 100 µM (inactive) | > 100 µM (inactive) | > 100 µM (inactive) |  | > 100 µM (inactive) | > 100 µM (inactive) | > 100 µM (inactive) | > 100 µM (inactive) | > 100 µM (inactive)
11 | CCOC(=O)N1c2c(ccn2C)-c2ccn(C)c2N1C(=O)OCC | 11.1 µM (inactive) | 2.64 µM (inactive) | 22.7 µM (inactive) | 19.6 µM (inactive) | 12.9 µM | 24.9 µM (inactive) | 4.2 µM (inactive) | 6.18 µM (inactive) | 19 µM (inactive) | > 10 µM (inactive) | 14.1 µM (inactive) | 20.9 µM (inactive) | 20 µM (inactive) | > 100 µM (inactive) | 30.6 µM (inactive) | 
12 | NC(=O)c1cc(C2OC(CO)C(O)C2O)nn1-c1ccc([N+](=O)[O-])cc1 (configuration not stated) | > 10 µM (inactive) | > 100 µM (inactive) | > 100 µM (inactive) | > 100 µM (inactive) | > 100 µM | > 100 µM (inactive) | > 100 µM (inactive) | > 100 µM (inactive) | > 100 µM (inactive) | > 100 µM (inactive) | > 100 µM (inactive) | 88.9 µM (inactive) | > 100 µM (inactive) | > 100 µM (inactive) | > 100 µM (inactive) | > 100 µM (inactive)
13 | N=CCCN(CCC=N)c1ccc(/C=C2\CN(NC(=O)c3ccc(Cl)cc3)C(c3ccccc3)=N2)cc1 | 90.2 µM (inactive) | > 100 µM (inactive) | > 100 µM (inactive) | > 100 µM (inactive) | > 100 µM | > 100 µM (inactive) | > 100 µM (inactive) | > 100 µM (inactive) | > 100 µM (inactive) | > 100 µM (inactive) | > 100 µM (inactive) | 26.4 µM (inactive) | > 100 µM (inactive) | > 100 µM (inactive) | > 100 µM (inactive) | 25.8 µM (inactive)
14 | CC(=O)C1=CCC2c3[nH]c4ccccc4c3CCN2C1 (configuration not stated) | 35.1 µM (inactive) | 38.5 µM (inactive) | > 100 µM (inactive) | 55 µM (inactive) | 50.8 µM | 61.1 µM (inactive) | 31 µM (inactive) | 42.1 µM (inactive) | 72.1 µM (inactive) | 35.6 µM (inactive) | 47.6 µM (inactive) |  | 26.6 µM (inactive) | 50 µM (inactive) | 21.6 µM (inactive) | 54.5 µM (inactive)
15 | CCOC(=O)C1C(c2ccccc2)=C(c2ccccc2)C(c2ccccc2)=C1c1ccccc1 | 21 µM (inactive) | > 79.3 µM (inactive) | > 100 µM (inactive) | > 100 µM (inactive) | 72.1 µM | 29.2 µM (inactive) | 35 µM (inactive) | 50 µM (inactive) | 40.9 µM (inactive) | 18.2 µM (inactive) | 25.7 µM (inactive) | 19.6 µM (inactive) | 29.7 µM (inactive) | 46.7 µM (inactive) | 22.6 µM (inactive) | 21.2 µM (inactive)
16 | CCN1C(=O)C/C(=C\C(C)=O)Nc2ccccc21 | > 100 µM (inactive) | > 100 µM (inactive) | > 100 µM (inactive) | > 100 µM (inactive) |  | > 100 µM (inactive) | > 100 µM (inactive) | > 100 µM (inactive) | > 100 µM (inactive) | > 100 µM (inactive) | > 100 µM (inactive) |  | > 100 µM (inactive) | 10 µM (inactive) | > 100 µM (inactive) | > 100 µM (inactive)
17 | O=C(O)CN(c1ccccc1)S(=O)(=O)c1ccc(Cl)cc1 | > 100 µM (inactive) | > 100 µM (inactive) | > 100 µM (inactive) |  | > 100 µM | > 100 µM (inactive) | > 100 µM (inactive) | > 100 µM (inactive) | > 100 µM (inactive) | > 100 µM (inactive) | > 100 µM (inactive) | > 100 µM (inactive) | > 100 µM (inactive) |  | > 100 µM (inactive) | > 100 µM (inactive)
18 | C[C@@H]1O[C@@H](O[C@H]2[C@H](Oc3cc(O)c4c(=O)cc(-c5ccc(O)cc5)oc4c3)O[C@H](CO)[C@@H](O)[C@@H]2O)[C@H](O)[C@H](O)[C@H]1O [RHOIFOLIN] | > 100 µM (inactive) | > 100 µM (inactive) | > 100 µM (inactive) |  | > 100 µM | > 100 µM (inactive) | > 100 µM (inactive) | > 100 µM (inactive) | > 100 µM (inactive) | > 100 µM (inactive) | > 100 µM (inactive) | > 100 µM (inactive) | > 100 µM (inactive) | > 100 µM (inactive) | > 100 µM (inactive) | > 100 µM (inactive)
